Data as given in patent US7659278B2, “Use of low molecular weight compounds for preparing a medicament useful in treating mutant p53 mediated diseases” (Aprea AB, priority 2002, dated 2010).

How the values were obtained:
Saos-2-His-273 cells [1] = experiment: Apoptosis induction by FACS (sub-G1, propidium iodide), Saos-2-His-273; assay type: cell-based, human; conditions: for time to apoptosis induction after treatment: data not shown; for p53 dependence of apoptosis induction: presence or absence of doxycyclin
Experimental: Induction of apoptosis was determined by FACS analysis of ethanol fixed cells stained with propidium iodide (PI) as percentage of a sub-G1 population. […] The percentage of dead cells in non-treated cultures and in controls treated with caspase inhibitors only was subtracted. […] Hoechst staining was used to stain cell nuclei.
(§1) Cells were placed on 12-well plate at a density of 30000/cm^2 and treated with compounds. After 48 h incubation cells were harvested by trypsinization, fixed with 70% ethanol, treated with RNase A (0.25 mg/ml) and stained with propidium iodide (0.02 mg/ml). Samples were analyzed on a Becton Dickinson FACScan. Data were analyzed by the CellQuest software, version 3.2.1.
Induction of cell death was determined by FACS analysis of ethanol-fixed cells stained with propidium iodide (PI) as percentage of sub-G1 population.

[2] = test system: human tumour cell lines with different p53 status (p53 null, wild type p53, mutant p53); experiment: WST-1 growth suppression in cell lines with different p53 status; assay type: cell-based; conditions: mutant p53 vs p53 null and wild type p53 cell lines
Experimental: The degree of WST-1 reduction, which reflects a number of living cells, was measured by microplate reader at λ490 nm according to manufacturer (Roche). The growth suppression was calculated as a difference in absorbance at λ 490 nm between untreated and treated cells and expressed in a percent from untreated control. Growth suppression=100%×(control absorbance−treated absorbance)/control absorbance. […] The experimental set up was as described in FIG. 2A.
The human cell lines were as follows. p53 null: Saos-2 osteosarcoma, K562 acute myeloid leukemia, and HL60 promyelocytic leukemia Wild type p53 expressing cells: NHF normal human fibroblasts, HeLa cervical carcinoma (carries HPV E6 protein, leading to p53 degradation), U2OS osteosarcoma, and EBV-positive IARC 171 lymphoblastoid cell line. […] In addition, mouse p53 null J3D T-cell lymphoma line was used.

[3] = test system: p53-responsive PG-luciferase reporter in Saos-2-His-273 cells; experiment: PG-luciferase p53 reporter assay in Saos-2-His-273; assay type: cell-based, human
Experimental: Transactivation assays using p53-responsive promoter constructs linked to the luciferase reporter gene (PG-luc) were performed by the Dual Luciferase Reporter Assay System (Promega) according to the manufacturer. […] A luciferase activity was assayed 1; 3.5 and 15 hours post-treatment.
Whereas compound MIRA-1 stimulated luciferase expression 2-fold already after 3.5 hours, 2-fold induction by compound PRIMA-I was achieved only after 15 hours of treatment.

[4] = test system: MDM2 and p21 in SW480 colon carcinoma cells (endogenous His-273 mutant p53); experiment: Western blot of MDM2 and p21, SW480; assay type: cell-based, human
Experimental: The expression of proteins was analyzed using Western blot. […] FIG. 10C pictures induction of p53 target genes in PRIMA-1-treated SW480 colon carcinoma cells carrying endogenous His-273/Ser-309 mutant p53.

[5] = target: T1, GST-wild type p53 protein (Homo sapiens, UniProt P04637); experiment: Band shift assay, heat-inactivated GST-wild type p53; assay type: biochemical; conditions: protein inactivated at 37° C. for 30 min
T1 construct: made in house
Experimental: Lane 3, inactivation of DNA binding of wtp53 by heating.
(§2) The GST-p53 proteins were prepared as described (Selivanova et al., 1997). Band shift assays were performed in binding buffer containing 100 mM HEPES pH 7.5, 50 mM KCl, 1 mg/ml BSA, 0.1% Triton X-100, 2 mM MgC12 and 1 mM DTT essentially as in (Selivanova et al., 1996).
Therefore, the restoration of the DNA binding of this mutant was regarded as an exceptionally difficult task.

[6] = test system: p53-responsive EGFP reporter in SKOV-His-175 cells; experiment: p53-responsive EGFP reporter in SKOV-His-175 cells; assay type: cell-based, human
Experimental: FIG. 9B, mutant p53-dependent activation of the wild-type p53-responsive EGFP reporter in PRIMA-1-treated SKOV-His-175 cells. […] FIG. 9C, MIRA-1 induced wild-type p53-responsive EGFP reporter in SKOV-His-175 cells.
The p53-EGFP plasmid contains 13 synthetic p53 consensus DNA binding sites in front of the EGFP coding sequence. Transient transfections experiments were performed with Lipofectamine 2000 according to the manufacturer's recommendations (Invitrogemm Life Technologies, Groningen, The Netherlands).
We also transiently transfected SKOV-His-175 cells with a p53-responsive EGFP reporter.

SKOV-His-175 cells = experiment: WST-1 proliferation assay, SKOV-His-175 cells (cycloheximide, His-175-22/23 comparison); assay type: cell-based, human; conditions: for increase in cell survival after cycloheximide pretreatment: cycloheximide before compound, WST-1
[7] = test system: KRC/Y renal carcinoma cells (Phe-176 mutant p53); experiment: Apoptosis induction by FACS, KRC/Y cells; assay type: cell-based, human; conditions: MIRA-1 50 μM, PRIMA-1 75 μM
Experimental: The percentage of apoptotic cells was detected by FACS analysis as it was described in FIG. 3A.
as §1
Thus, it appears that the defect caused by substitution of the Cys residue at position 176 is irreversible. The substitution of this Cys residue abolishes the binding of a Zn atom which holds together the DNA-binding loops of the p53 core domain. Therefore, the unfolding of this mutant p53 protein is probably too extensive to be restored.

Saos-2-His-273 cells [8] = experiment: Colony formation assay, Saos-2-His-273; assay type: cell-based, human
Description: Colonies were stained with Giemsa and counted 14 days after seeding.
The cells were Giemsa stained and scored for the appearance of colonies after 14 days.

[9] = test system: endogenous mutant p53 proteins; assay type: biochemical, human; conditions: cell extracts of human tumor cell lines, band shift
Experimental: PAb421 antibody was added to all reaction mixtures. […] Monoclonal antibody PAb421 was added to the reaction mixtures in lanes 2-8; PAb1801 was added to the reaction mixtures in lanes 9-15.
as §2

T1 sequence (P04637 whole entry): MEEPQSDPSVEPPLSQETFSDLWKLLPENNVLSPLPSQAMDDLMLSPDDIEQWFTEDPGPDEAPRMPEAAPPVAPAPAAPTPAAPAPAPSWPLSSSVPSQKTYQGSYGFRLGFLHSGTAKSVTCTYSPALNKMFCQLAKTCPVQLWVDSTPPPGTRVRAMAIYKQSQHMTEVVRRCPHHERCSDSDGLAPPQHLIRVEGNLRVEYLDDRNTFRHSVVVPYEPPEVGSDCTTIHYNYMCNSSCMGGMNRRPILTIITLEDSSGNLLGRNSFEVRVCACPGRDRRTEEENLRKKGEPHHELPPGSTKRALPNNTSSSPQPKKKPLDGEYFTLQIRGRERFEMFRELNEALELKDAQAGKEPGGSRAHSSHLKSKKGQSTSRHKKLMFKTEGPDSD

Row | SMILES | time to apoptosis induction after treatment (Saos-2-His-273 cells [1]) [h] | p53 dependence of apoptosis induction (Saos-2-His-273 cells [1]) | growth suppression by p53 status [2] | stimulation of luciferase expression ([3]; after 3.5 hours) [fold] | induction of MDM2 and p21 [4] | restoration of specific DNA binding after heat inactivation [5] | EGFP reporter expression ([6]; 5 μM for 24 hours) | sensitivity of SKOV-His-175 cells in comparison with SKOV-His-175-22/23 cells (SKOV-His-175 cells; after compound treatment) | increase in cell survival after cycloheximide pretreatment (SKOV-His-175 cells) | induction of apoptosis [7] | number of colonies, of untreated control (Saos-2-His-273 cells [8]; 5 μM, colonies counted after 14 days) [%] | mutant p53 proteins with restored specific DNA binding [9] | induction of luciferase expression ([3]; after 15 hours of treatment) [fold] | EGFP reporter expression ([6]; cells expressing mutant p53, 24 hours) | EGFP reporter expression ([6]; presence of doxycycline (p53 off)) | doses inhibitory in a mutant p53-dependent manner (Saos-2-His-273 cells [8]; colony formation, 14 days) [µM]
1 | CCCOCN1C(=O)C=CC1=O [MIRA-1, 1-(propoxymethyl)-maleimide] | 6 to 12 | occurred only in the presence of p53 expression | suppressed the growth of mutant p53-expressing cells more efficiently then p53 null and wild type p53 containing cells | 2 | induced MDM2 and p21 | able to restore the specific DNA binding of the GST-wild type p53 protein | induction of EGFP was also observed | at least 3 fold | about 4 fold | much less prominent as compared to Saos-2-His-273 cells | 15 | 3 out of 14 |  |  |  | 
2 | O=C1C2CCN(CC2)C1(CO)CO [PRIMA-1, 2,2-bis(hydroxymethyl)-1-azabicyclo[2.2.2]octan-3-one] | 48 | occurred only in the presence of p53 expression | suppressed the growth of mutant p53-expressing cells more efficiently then p53 null and wild type p53 containing cells |  | induced MDM2 and p21 | able to restore the specific DNA binding of the GST-wild type p53 protein |  |  | 4 fold | much less prominent as compared to Saos-2-His-273 cells |  | 13 out of 14 | 2 | strong induction of EGFP expression | did not express detectable levels of EGFP | 50 to 100
